For experiment [1], the system named is E. coli/NDM lysate. Put plainly: Bioluminescence with bacterial lysate compared to intact bacteria, E. coli/NDM. Particulars: CHAPS lysis.
Experimental: (§3) To evaluate whether releasing β-lactamases from periplasm could improve detection sensitivity, the bacteria were lysed.
(§4) Two clinically significant isolates K. pneumoniae expressing KPC carbapenemase (K. pneumoniae/KPC) and E. coli expressing New Delhi metallo β-lactamase (E. coli/NDM) were evaluated.
(§5) Bacteria was mixed with 0.5% CHAPS lysis buffer for 15 min, and then incubated with D-Bluco at room temperature for another 15 min. The resulted mixture was combined with assay buffer which contains MgCl2, CoA, ATP, and luciferase for immediate bioluminescent reading.
For experiment [2], the system named is S. marcescens (SME). Briefly: Clinical isolate spiked in synthetic urine, filtered and centrifuged, S. marcescens (SME). It is filed as cell-based. The settings on record: 10 μM D-Bluco, an hour at 37° C., PBS pH 7.4. The procedure: (§1) FIGS. 11A-11C illustrate detection of clinical isolates spiked in urine with D-Bluco a) Workflow for clinical sample detection b) Bioluminescent response for different concentrations of S. marcescens (SME) or c) E. coli/OXA-48 spiked into synthetic urine samples following the incubation with D-Bluco (10 μM) at 37° C. for an hour. Bioluminescent signal was measured and compared to that of E. coli (10^6 c.f.u/mL).
(§2) Urinary tract infection (UTI) is a severe public health problem because of the high recurrence rates and increasing antimicrobial resistance. It is among the major cause of patient morbidity and health care expenditures for both men and women of all age groups, accounting for 1 million cases of nosocomial in USA annually and an estimate cost of 1.6 billion. As a proof-of-concept, we spiked different concentrations of clinic isolates into synthetic urine samples. E. coli expressing OXA-48 and S. marcescens (SME) were chosen as examples. S. marcescens, being an opportunistic pathogen, accounts for an average of 6.5% of all Gram negative infection in intensive Care Units. The spiked urine samples were filtered and centrifuged to collect the bacteria (FIG. 11A). The collected bacteria were then diluted in PBS (pH=7.4) and incubated with 10 μM D-Bluco for an hour at 37° C.

Experiment [3] relates to K. pneumoniae/KPC lysate. Put plainly: Bioluminescence with bacterial lysate compared to intact bacteria, K. pneumoniae/KPC. Particulars: CHAPS lysis.
Experimental: as §3, §4, §5
Experiment [4] relates to E. cloacae/AmpC. Briefly: RAPID BLI test, clinic isolate spiked into synthetic urine, E. cloacae/AmpC. The settings on record: E. cloacae/AmpC in synthetic urine, D-Bluco 10 μM.
Experimental: The modified rapid BLI protocol is applied. The signal of D-Bluco in PBS was subtracted before plotting. The working concentration of D-Bluco was 10 μM. All the studies were duplicated at room temperature in PBS (pH=7.4). Statistical significance was calculated using the unpaired two-tailed Student's t test (** p<0.0021, *** p<0.0002, **** p<0.0001, for comparison with 10^5 cfu/mL E. coli) (** p<0.0021, **** p<0.0001, ns: not significant). RLU indicates relative light units. Dotted line represents 3SD of the negative control.
as §5
Clinic isolates representing different classes (class A: Enterobacter cloacae/IMI, E. coli/TEM, K. pneumoniae/KPC; class B: E. coli/NDM, and class C: E. cloacae/AmpC) were spiked into synthetic urine samples.
Experiment [5] concerns E. coli expressing OXA-48. Put plainly: Clinical isolate spiked in synthetic urine, filtered and centrifuged, E. coli expressing OXA-48. The class given is cell-based, Escherichia coli. Particulars: E. coli expressing OXA-48, 10 μM D-Bluco, an hour at 37° C., PBS pH 7.4. The procedure: as §1, §2
The subject of experiment [6] is E. coli/TEM lysate. Put plainly: Bioluminescence with bacterial lysate compared to intact bacteria, E. coli/TEM. The class given is cell-based, Escherichia coli. The settings on record: CHAPS lysis.
Experiment [7] has as its system KPC-3, BlaC, TEM-1, IMP-1, AmpC, OXA-48. Briefly: Bioluminescence with panel of recombinant β-lactamases of clinical relevance. The class given is biochemical. The procedure: FIGS. 9A and 9B illustrates bioluminescent studies of D-Bluco and O-Bluco treating with various β-lactamases. 10 μM of Bluco, D-Bluco and O-Bluco incubated with 20 nM TEM-1 for 15 min in PBS at r.t. The bioluminescent signals for each compound was evaluated with or without the addition of TEM-1 by a luminator. […] The relative bioluminescent was calculated by removing background signal in PBS.
Having confirmed the quenching ability of dabcyl to lower D-Bluco bioluminescent background emission, the activity of D-Bluco towards a variety of β-lactamases that are of clinical relevance in addition to TEM-1, including KPC-3, BlaC (Class A), AmpC (Class C), and OXA-48 (Class D) was then assessed. These enzymes were recombinantly expressed and purified. The bioluminescent signal was measured with an IVIS optical imaging system after treating D-Bluco with each enzyme for 2 hours at room temperature.
D-Bluco and O-Bluco were evaluated with various β-lactamase that of clinical relevance (FIG. 9B and 9C), including KPC-3, BlaC, TEM-1 (Class A), IMP-1 (Class B), AmpC (Class C), and OXA-48 (Class D). These enzymes were recombinantly expressed, purified as previously described^25. The bioluminescent signal was measured after incubating O-Bluco or D-Bluco with each enzyme at different concentrations for 2 hr at r.t. […] This compares favorably to previously reported fluorescent cephalosporin probe with a 1000-fold sensitivity improvement.^26
The caged luciferin probes were incubated with different concentrations of TEM-1 β-lactamase or IMP-1 carbapenemase (0.001-0.1 fmol) in PBS (pH=7.4) for 2 hr at 25° C. Then a mixture of luciferase (200 nM), ATP (2 mM), and MgCl2 (4 mM) was added, and bioluminescent signals were detected with a SpectraMax microplate reader or a luminator.

The results in this text go back to patent US20240229098A1, “BIOLUMINOGENIC ASSAY FOR DRUG-RESISTANCE BACTERIA DETECTION” (priority 2021, published 2024).

For the molecule `CN(C)c1ccc(/N=N/c2ccc(C(=O)NCCCCCC(=O)NC3C(=O)N4C(C(=O)O)=C(COc5ccc6nc(C7=N[C@@H](C(=O)O)CS7)sc6c5)C[S+]([O-])C34)cc2)cc1` (stereo partly drawn) [D-Bluco, 3-(((2-((S)-4-carboxy-4,5-dihydrothiazol-2-yl)benzo[d]thiazol-6-yl)oxy)methyl)-7-(6-(4-((E)-(4-(dimethylamino)phenyl)diazenyl)benzamido)hexanamido)-8-oxo-5-thia-1-azabicyclo[4.2.0]oct-2-ene-2-carboxylic acid 5-oxide], the figures for the “signal enhancement with lysate compared to intact bacteria” value in experiment [1], in experiment [3] and in experiment [6] were 145 fold, 141 fold and 52 fold, respectively. Moreover, the results for the “concentration from which significant bioluminescence enhancement is seen” value in experiment [2] and in experiment [5] were 10^4 c.f.u/mL and 10^5 c.f.u/mL, respectively. For the same molecule, the “concentration detected directly without culture” value in experiment [4] is 10^2 cfu/mL. The “lowest detectable β-lactamase activity” value in experiment [7] is recorded as 10-18 moles. For the same molecule, the “detection limits for the panel of enzymes” value in experiment [7] (KPC-3, BlaC, TEM-1, IMP-1, AmpC, OXA-48, 2 hr at r.t.) was “within the femtomole range”. The “bioluminescence triggered by β-lactamases TEM-1, KPC-3, BlaC, AmpC, OXA-48” value in experiment [7] (each enzyme 2 hours at room temperature, IVIS imaging) is on record as “significant bioluminescence”.
